Experimental data reported in ChEMBL document CHEMBL1150946, “Antipruritic dinaphthofuran-7,12-dione derivatives from the pericarp of Impatiens balsamina” (J Nat Prod, 1998).
Calls of active or inactive are those of the source. No cut-off for these calls is given here.

System: Mus musculus
Assay: Antipruritic activity in ddY mouse assessed as inhibition of compound 48/80-induced nose scratching behavior at 10 mg/kg, po for 20 mins preincubated 24 hrs before compound 48/80 challenge
Format: functional, organism-based
Parameters: dose 10 mg/kg

| Compound | Activity |
| --- | --- |
| COc1c(O[C@@H]2O[C@H](CO)[C@@H](O)[C@H](O)[C@H]2O)c2ccccc2c2oc3c(c12)C(=O)c1ccccc1C3=O | Active |
| COC1=CC(=O)c2ccccc2C1=O | Active |
